Measurements from patent publication US10568931B2, “Pharmaceutical composition comprising ginseng extracts for prevention and treatment of ophthalmological diseases” (GINTONIN KU BIOTECH Co., Ltd., priority 2017, dated 2020).

Key:
[1] = system: human corneal epithelial-T (HCE-T) cells; test: Scratch wound healing / cell migration in HCE-T cells; format: cell-based; details: Ki16425 treated before gintonin
Protocol: HCE-T cells (RCB-2280) were purchased from a Riken cell bank. The HCE-T cells were cultured in a medium in which 10% FCS was contained in a DMEM-Ham F12 (1:1) medium (Araki-sasaki et al., Investigative Ophthalmology and Visual Science 36, 614-621, 1995; Arakisasaki et al., J cellular Physiol. 182, 189-195, 2000).
HCE-T (2.5×10^5/well) was planted in a 24-well plate and cultured for 24 hrs and then cultured for 6 hrs in a 0.2% FBS-containing DMEM medium again. The wound was made by drawing a line through the center of each well where cells grew by using a […] pipette tip and then the floating cells were washed twice with a 1% FBS-containing DMEM medium to be removed.
The cells were treated with 0.03 to 1 μg/ml of gintonin and cultured and compared with cells without treating gintonin by observing and photographing (100×) cell shapes before and after gintonin treatment of each well with an inverted fluorescence microscope (AxioVert200; Carl Zeiss).
For the analysis of the degree of cell growth in a part wounded with the pipette tip, an area of the wound part where cells were not recovered was measured using AxioVision.

[2] = system: intracytoplasmic calcium in HCE-T cells; test: Fura 2 fluorescence measurement of [Ca^2+]i in HCE-T cell suspension; format: cell-based, human; details: LPA1/3 receptor antagonist
Protocol: Particularly, according to a method such as Jrgensen and the like, HCE-T cells (1 to 2×10^6 cell/ml) were mixed in […] Fura 2-AM while being shaken for 30 minutes at a 37° C. incubator by using a Ca^2+-containing buffer (pH 7.4) consisting of NaCl 120 mM, KCl 5 mM, MgCl2 1 mM, CaCl2 1.5 mM, glucose 10 mM, and HEPES 25 mM and a Ca^2+-free buffer (pH 7.4) consisting of NaCl 120 mM, KCl 5 mM, MgCl2 1 mM, EGTA 0.2 mM, glucose 10 mM, and HEPES 25 mM, and an excessive amount of fura-2 was removed by washing the cells with the Ca^2+ buffer or the Ca^2+-free buffer three times.
[Ca^2+]i was estimated in the Fura 2-loaded cells by using a RF-5300PC intracellular ion measurement system (Shimadzu Corporation, Japan). […] Excitation wavelengths were alternated between 340 and […] under a computer control and emission was detected at 510. […]
A measured ratio value of 340:380 was converted to a value of [Ca^2+]i by using Equation of Hounsell and the like (Hounsell, E. F., Davies, M. J., and Smith, K. D. (1997) Protein protocol handbook, Humanna press, Totawa, 803-804). […] Further, Sf380 and Sb380 are fluorescence intensity at 380 nm when adding digitonin and EGTA and the ratios are maximum and minimum values when these values are indicated (Grynkiewicz, G., M. Poenie, and R. Y. Tsien. (1985) J Biol Chem 260: 3440-3450).

## Cc1noc(-c2ccc(CSCCC(=O)O)cc2)c1NC(=O)OC(C)c1ccccc1Cl (centres unmarked) [Ki16425]
[1]
  Effect of antagonist pretreatment on gintonin-promoted cell migration: the action of the gintonin is inhibited
[2]
  Effect of antagonist on increase in intracytoplasmic calcium by gintonin: blocked
